In patent US20240317735A1, “HYDROISOQUINOLINE OR HYDRONAPHTHYRIDINE COMPOUNDS FOR THE TREATMENT OF AUTOIMMUNE DISEASE” (Hoffmann-La Roche Inc., priority 2020, published 2024):

Target: T1, TLR9 (Homo sapiens, UniProt Q9NR96)
T1 sequence (Q9NR96 26-1032): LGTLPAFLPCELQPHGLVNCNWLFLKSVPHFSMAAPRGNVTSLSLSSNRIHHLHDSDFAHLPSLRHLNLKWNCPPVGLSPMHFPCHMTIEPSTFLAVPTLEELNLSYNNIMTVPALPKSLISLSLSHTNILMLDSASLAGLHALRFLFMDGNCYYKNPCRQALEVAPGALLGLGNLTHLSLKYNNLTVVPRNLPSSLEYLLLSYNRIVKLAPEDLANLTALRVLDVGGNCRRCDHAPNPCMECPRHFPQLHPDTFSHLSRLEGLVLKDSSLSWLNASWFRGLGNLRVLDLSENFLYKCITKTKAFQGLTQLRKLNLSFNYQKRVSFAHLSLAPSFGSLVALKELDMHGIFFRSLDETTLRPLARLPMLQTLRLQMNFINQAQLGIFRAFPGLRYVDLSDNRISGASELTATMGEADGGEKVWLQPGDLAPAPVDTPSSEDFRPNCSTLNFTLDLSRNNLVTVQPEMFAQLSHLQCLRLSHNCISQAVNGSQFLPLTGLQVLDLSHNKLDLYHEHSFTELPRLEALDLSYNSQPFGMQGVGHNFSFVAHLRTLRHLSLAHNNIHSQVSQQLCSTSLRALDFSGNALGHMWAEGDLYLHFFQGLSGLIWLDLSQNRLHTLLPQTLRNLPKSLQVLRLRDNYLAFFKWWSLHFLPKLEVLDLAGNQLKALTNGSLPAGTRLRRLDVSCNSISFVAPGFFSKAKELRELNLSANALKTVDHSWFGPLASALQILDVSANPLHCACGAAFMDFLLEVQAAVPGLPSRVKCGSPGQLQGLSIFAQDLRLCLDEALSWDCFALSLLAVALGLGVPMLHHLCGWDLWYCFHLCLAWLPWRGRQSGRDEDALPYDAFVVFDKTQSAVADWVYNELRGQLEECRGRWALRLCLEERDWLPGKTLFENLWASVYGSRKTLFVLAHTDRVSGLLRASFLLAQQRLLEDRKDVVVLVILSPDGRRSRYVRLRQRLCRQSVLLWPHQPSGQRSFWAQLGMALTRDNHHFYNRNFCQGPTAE
Experiment: HEK293-Blue-hTLR-9 cells assay (SEAP reporter, ODN2006 stimulation)
Type: cell-based
Set-up: host or cells: HEK293 (HEK-Blue hTLR9)
Conditions: HEK293-Blue-hTLR9 cells, ODN2006, 20 hrs; read-out: HEK/hTLR9 IC50
Description: The following tests were carried out in order to determine the activity of the compounds of formula (I) and (Ia) in HEK293-Blue-hTLR-7/8/9 cells assay.
A stable HEK293-Blue-hTLR-9 cell line was purchased from InvivoGen (Cat. #: hkb-htlr9, San Diego, California, USA). These cells were originally designed for studying the stimulation of human TLR9 by monitoring the activation of NF-κB. A SEAP (secreted embryonic alkaline phosphatase) reporter gene was placed under the control of the IFN-β minimal promoter fused to five NF-κB and AP-1-binding sites. The SEAP was induced by activating NF-κB and AP-1 via stimulating HEK-Blue hTLR9 cells with TLR9 ligands. Therefore the reporter expression was declined by TLR9 antagonist under the stimulation of a ligand, such as ODN2006 (Cat. #: tlrl-2006-1, Invivogen, San Diego, California, USA), for incubation of 20 hrs. The cell culture supernatant SEAP reporter activity was determined using QUANTI-Blue™ kit (Cat. #: rep-qb1, Invivogen, San Diego, California, USA) at a wavelength of 640 nm, a detection medium that turns purple or blue in the presence of alkaline phosphatase.
HEK293-Blue-hTLR9 cells were incubated at a density of 250,000-450,000 cells/mL in a volume of 170 μL in a 96-well plate in Dulbecco's Modified Eagle's medium (DMEM) containing 4.5 g/L glucose, 50 U/mL penicillin, […], […], 2 mM L-glutamine, 10% (v/v) heat-inactivated fetal bovine serum with addition of 20 μL test compound in a serial dilution in the presence of final DMSO at 1% and 10 μL of 20 uM ODN2006 in above DMEM, perform incubation under 37° C. in a CO2 incubator for 20 hrs. Then 20 μL of the supernatant from each well was incubated with 180 μL Quanti-blue substrate solution at 37° C. for 2 h and the absorbance was read at 620˜655 nm using a spectrophotometer.
The signaling pathway that TLR9 activation leads to downstream NF-κB activation has been widely accepted, and therefore similar reporter assay was modified for evaluating TLR9 antagonist.

Row | IC50 | SMILES
1 | 0.309 µM | CC1CN(c2ccc3c(c2)[C@@H](C)CN(c2ccnc4c2cnn4C)C3)CCN1 (stereo partly drawn) [Example 15, (4R)-4-methyl-6-(3-methylpiperazin-1-yl)-2-(1-methylpyrazolo[3,4-b]pyridin-4-yl)-3,4-dihydro-1H-isoquinoline]
2 | 0.326 µM | C[C@H]1CN(c2ccnc3c2cnn3C)Cc2ccc(OCCN3CCNCC3)cc21 [Example 40, (4R)-4-methyl-2-(1-methylpyrazolo[3,4-b]pyridin-4-yl)-6-(2-piperazin-1-ylethoxy)-3,4-dihydro-1H-isoquinoline]
3 | 0.113 µM | Cc1cc(N2Cc3ccc(N4CCNCC4)nc3[C@H](C)C2)c2cnn(C)c2n1 [Example 72, (8R)-6-(1,6-dimethylpyrazolo[3,4-b]pyridin-4-yl)-8-methyl-2-piperazin-1-yl-7,8-dihydro-5H-1,6-naphthyridine]
4 | 0.217 µM | C[C@H]1CN(c2ccnc3c2cnn3C)Cc2ccc(N3CC4CNC[C@H]4C3=O)cc21 (relative stereo) [Example 17, cis-5-[(4R)-4-methyl-2-(1-methylpyrazolo[3,4-b]pyridin-4-yl)-3,4-dihydro-1H-isoquinolin-6-yl]-1,2,3,3a,6,6a-hexahydropyrrolo[3,4-c]pyrrol-4-one]
5 | 0.144 µM | Cc1cc(N2Cc3cnc(OCCN4CCNCC4)cc3[C@@H](C)C2)c2cnn(C)c2n1 [Example 77, (4R)-2-(1,6-dimethylpyrazolo[3,4-b]pyridin-4-yl)-4-methyl-6-(2-piperazin-1-ylethoxy)-3,4-dihydro-1H-2,7-naphthyridine]
6 | 0.398 µM | C[C@H]1CN(c2ccnc3c2cnn3C)Cc2ccc(O[C@@H]3C[C@H]4CNCCN4C3)cc21 [Example 42, (4R)-4-methyl-2-(1-methylpyrazolo[3,4-b]pyridin-4-yl)-6-[[(7R,8aS)-1,2,3,4,6,7,8,8a-octahydropyrrolo[1,2-a]pyrazin-7-yl]oxy]-3,4-dihydro-1H-isoquinoline]
7 | 0.112 µM | Cn1ncc2c(N3Cc4ccc(N5CCC6(CCNCC6)CC5)cc4C(C)(C)C3)ccnc21 [Example 6, 3-[4,4-dimethyl-2-(1-methylpyrazolo[3,4-b]pyridin-4-yl)-1,3-dihydroisoquinolin-6-yl]-3,9-diazaspiro[5.5]undecane]
8 | 0.311 µM | C[C@H]1CN(c2ccnc3c2cnn3C)Cc2ccc(N3C[C@H]4CNCCN4C3=O)cc21 [Example 24, (8aR)-2-[(4R)-4-methyl-2-(1-methylpyrazolo[3,4-b]pyridin-4-yl)-3,4-dihydro-1H-isoquinolin-6-yl]-1,5,6,7,8,8a-hexahydroimidazo[1,5-a]pyrazin-3-one]
9 | 0.242 µM | C[C@H]1CN(c2ccnc3c2cnn3C)Cc2ccc(OC[C@H]3CNCCN3C)cc21 [Example 43, (4R)-4-methyl-2-(1-methylpyrazolo[3,4-b]pyridin-4-yl)-6-[[(2R)-1-methylpiperazin-2-yl]methoxy]-3,4-dihydro-1H-isoquinoline]
10 | 0.137 µM | C[C@H]1CN(c2ccnc3c2cnn3C)Cc2ccc(N3C[C@@H]4CCNCC4C3=O)cc21 (relative stereo) [Example 55, cis-2-[(4R)-4-methyl-2-(1-methylpyrazolo[3,4-b]pyridin-4-yl)-3,4-dihydro-1H-isoquinolin-6-yl]-3a,4,5,6,7,7a-hexahydro-1H-pyrrolo[3,4-c]pyridin-3-one]
11 | 0.334 µM | C[C@H]1CN(c2ccnc3c2cnn3C)Cc2ccc(N3C[C@]4(CCNC4)CC3=O)cc21 (single isomer, unassigned) [Example 54]
12 | 0.131 µM | Cc1cc(N2Cc3cnc(N4CC5(CNCCO5)C4)cc3[C@@H](C)C2)c2cnn(C)c2n1 [Example 79, 2-[(5R)-7-(1,6-dimethylpyrazolo[3,4-b]pyridin-4-yl)-5-methyl-6,8-dihydro-5H-2,7-naphthyridin-3-yl]-5-oxa-2,8-diazaspiro[3.5]nonane]
13 | 0.234 µM | C[C@H]1CN(c2ccnc3c2cnn3C)Cc2ccc(OC[C@@H]3CNCCN3C)cc21 [Example 44, (4R)-4-methyl-2-(1-methylpyrazolo[3,4-b]pyridin-4-yl)-6-[[(2S)-1-methylpiperazin-2-yl]methoxy]-3,4-dihydro-1H-isoquinoline]
14 | 0.063 µM | CO[C@@H]1CN(C2CCN(c3ccc4c(c3)[C@@H](C)CN(c3ccnc5c3cnn5C)C4)CC2)C[C@H]1N [Example 11, (3R,4R)-4-methoxy-1-[1-[(4R)-4-methyl-2-(1-methylpyrazolo[3,4-b]pyridin-4-yl)-3,4-dihydro-1H-isoquinolin-6-yl]-4-piperidyl]pyrrolidin-3-amine]
15 | 0.229 µM | Cc1cc(N2Cc3ccc(N4CC5(CNCCO5)C4)cc3[C@@H](C)C2)c2cnn(C)c2n1 [Example 48, 2-[(4R)-2-(1,6-dimethylpyrazolo[3,4-b]pyridin-4-yl)-4-methyl-3,4-dihydro-1H-isoquinolin-6-yl]-5-oxa-2,8-diazaspiro[3.5]nonane]
16 | 0.326 µM | C[C@H]1CN(c2ccnc3c2cnn3C)Cc2ccc(N3CCN(S(=O)(=O)C4CCNC4)CC3)cc21 (stereo partly drawn) [Example 33, (4R)-4-methyl-2-(1-methylpyrazolo[3,4-b]pyridin-4-yl)-6-(4-pyrrolidin-3-ylsulfonylpiperazin-1-yl)-3,4-dihydro-1H-isoquinoline]
17 | 0.23 µM | Cc1cc(N2Cc3ccc(N4C[C@@H](N)[C@H](O)C4)cc3[C@@H](C)C2)c2cnn(C)c2n1 [Example 47, trans-4-amino-1-[(4R)-2-(1,6-dimethylpyrazolo[3,4-b]pyridin-4-yl)-4-methyl-3,4-dihydro-1H-isoquinolin-6-yl]pyrrolidin-3-ol]
18 | 0.073 µM | C[C@H]1CN(c2ccnc3c2cnn3C)Cc2ccc(N3CC4(CCNCC4)OC3=O)cc21 [Example 26, 3-[(4R)-4-methyl-2-(1-methylpyrazolo[3,4-b]pyridin-4-yl)-3,4-dihydro-1H-isoquinolin-6-yl]-1-oxa-3,8-diazaspiro[4.5]decan-2-one]

Row | SMILES | IC50
19 | CO[C@@H]1CN(c2ccc3c(n2)[C@@H](C)CN(c2cc(C)nc4c2cnn4C)C3)C[C@H]1N [Example 63, (3R,4R)-4-methoxy-1-[(8S)-6-(1,6-dimethylpyrazolo[3,4-b]pyridin-4-yl)-8-methyl-7,8-dihydro-5H-1,6-naphthyridin-2-yl]pyrrolidin-3-amine] | 0.236 µM
20 | C[C@H]1CN(c2ccnc3c2cnn3C)Cc2ccc(N3C4CCC3CNC4)cc21 [Example 27, (4R)-6-(3,8-diazabicyclo[3.2.1]octan-8-yl)-4-methyl-2-(1-methylpyrazolo[3,4-b]pyridin-4-yl)-3,4-dihydro-1H-isoquinoline] | 0.185 µM
21 | C[C@H]1CN(c2ccnc3c2cnn3C)Cc2ccc(OC[C@@H]3CNCCN3)cc21 [Example 19, (4R)-4-methyl-2-(1-methylpyrazolo[3,4-b]pyridin-4-yl)-6-[[(2S)-piperazin-2-yl]methoxy]-3,4-dihydro-1H-isoquinoline] | 0.101 µM
22 | CO[C@@H]1CN(c2ccc3c(c2)[C@@H](C)CN(c2ccnc4c2cnn4C)C3)C[C@H]1N [Example 20, (3R,4R)-4-methoxy-1-[(4R)-4-methyl-2-(1-methylpyrazolo[3,4-b]pyridin-4-yl)-3,4-dihydro-1H-isoquinolin-6-yl]pyrrolidin-3-amine] | 0.239 µM
